Experimental data from the METLIN SMRT retention time set (Domingo-Almenara et al. 2019).

Assay: gradient 5% acetonitrile 3 min, to 50% in 2 min, to 85% in 15 min, held 3 min, 100 µL/min
Conditions: column: Zorbax Extend-C18 2.1 x 50 mm; eluents: water / acetonitrile, 0.1% formic acid
Method in brief: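 Retention time was recorded from adduct peaks, which were picked computationally and each inspected manually. Pure standards ran in mixtures of ~100 molecules on HPLC coupled to a quadrupole time-of-flight mass spectrometer, in positive and negative ionization mode, through a Zorbax Extend-C18 column (2.1 × 50 mm, 1.8 μm) at 100 μL/min. Eluents were water and acetonitrile, each with 0.1% formic acid.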

Compound	RP-LC retention time
CCCN1CCN(C(=O)CN2C(=O)C3CCCCN3c3ccc(S(=O)(=O)N(C)C)cc32)CC1 (stereo not given)	628 s
COc1ccc(OC)c(CNC(=O)c2cn3c(n2)CCCC3)c1	587 s
CNC(=O)[C@@H]1CN(S(=O)(=O)c2cnc[nH]2)C[C@H]1c1nc(C)no1	568 s
COc1ccc(-c2nc(Cn3ccn4nc(-c5ccccc5)cc4c3=O)c(C)o2)cc1	1100 s
CCCNC(=O)NCCC1CCN(S(=O)(=O)c2ccccc2)CC1	753 s
CCCN1C(=O)c2cc(C(=O)NCc3ccc(F)cc3)nn2CC1(C)C(=O)NC1CCCC1 (stereo not given)	824 s
Cc1noc(C)c1S(=O)(=O)N1CCC2(CCC(CN(C)Cc3ccncc3)O2)CC1 (stereo not given)	604 s
COc1ccc(-c2noc(-c3nc(-c4ccc(N(C)C)cc4)no3)n2)cc1OC	1230 s
Cc1ccnc(NS(=O)(=O)c2ccc(N)cc2)n1	652 s
CCc1cccc(C)c1NC(=O)Cn1cnc2nc(N3CCCC(C(=O)NC)C3)sc2c1=O (stereo not given)	672 s
COC(=O)c1ncn2c1C(=O)N(C1CC1)C(C)(C(=O)NCc1cccc(C)c1)C2 (stereo not given)	658 s
Cc1ccc(NS(=O)(=O)c2ccc3c4c(cccc24)C(=O)N3)c(C)c1	751 s
COc1ccc(NC(=O)c2cccn2-c2cccnc2)cc1OC	678 s
O=C(CCCCCCNC(=O)c1cnc(N(c2ccccc2)c2ccccc2)nc1)NO	771 s
O=C(CN1CCC2(CC1)N=C(c1ccc(Cl)cc1)C(=O)N2)NCc1ccc2c(c1)OCO2	680 s
O=C(Nc1c(-c2ccccc2)nc2ccccn12)c1ccc2ccccc2c1	720 s
Nc1nc(CN2CCN(c3ncccn3)CC2)nc(N2CCCCC2)n1	611 s
CCN(C(=O)Cn1ccc2c(=O)n(C)c(=O)n(C)c21)c1cccc(Cl)c1	747 s
CCCN1C(=O)COc2ccc(-c3csc(NC(C)=O)n3)cc21	806 s
CCCc1c(C(=O)O)nnn1Cc1ccc(OC)cc1	710 s

Compound	RP-LC retention time
COc1ccc(C(=O)N2CCc3ccc(C(=O)NCc4ccc(C)o4)cc32)cc1	865 s
COCCN(CCNC(=O)C1Cn2cccc2C(=O)N1C)Cc1ccco1 (stereo not given)	569 s
Cc1cccc(NC(=O)C2CCc3nc(N4CCOCC4)ncc3C2)c1 (stereo not given)	786 s
O=S(=O)(NCc1nc(-c2ccc(NS(=O)(=O)c3ccccc3)cc2)no1)c1ccccc1	877 s
COCCN1CCC2(CC1)CN(Cc1cc(OC)cc(OC)c1)Cc1ccccc1O2	560 s
COc1cc(/C=C(\C)c2ccc3c(c2)OCO3)cc(OC)c1OC	1030 s
Cc1nc(C)c(C(=O)N2CCC(n3c(C)cnc3C3CCC3)CC2)s1	580 s
CCN1CCN(C(=O)CC2CCN(S(=O)(=O)c3ccc(Cl)s3)CC2)CC1	647 s
CCn1c(=O)n(Cc2cccnc2)c(=O)c2cnc(-c3ccc(OC)cc3)nc21	762 s
Clc1cc(Cl)cc(-c2ccc(CNCc3ccccn3)o2)c1	742 s
Cc1ccc(-c2ccc(N3CCCC(C(=O)NC4CCCC4)C3)nn2)cc1C (stereo not given)	738 s
Fc1ccccc1-c1nc2ccn(Cc3ccc(-c4ccc(C(F)(F)F)cc4C(F)(F)F)nn3)cc-2n1	849 s
CCCn1cc(CCNC(=O)Nc2ccc(Cl)cc2F)c2cccnc21	876 s
Cc1ccc(S(=O)(=O)N2CCC3(CCN(c4cccnc4)C3)C2)c(C)c1 (stereo not given)	684 s
Cc1ccc(-c2nc3ncccn3c2NC(=O)c2cccc(C(F)(F)F)c2)cc1	838 s
O=C(Nc1ccc(F)cc1Cl)c1c(O)c2cccnc2n(Cc2ccccc2)c1=O	1240 s
Cc1nnc(CNC(=O)CCc2c[nH]c3ccccc23)o1	622 s
NS(=O)(=O)c1ccc(NC(=O)c2ccc(S(=O)(=O)c3ccc(Cl)cc3)s2)cc1	877 s
Cc1ccc(CN2CCC(C3CCN(S(C)(=O)=O)CC3)C2)nc1 (stereo not given)	580 s
CCn1ccc2sc(C)c(C(=O)NCc3ccccc3Cl)c2c1=O	879 s

Compound	RP-LC retention time
CC(C)NC(=O)N1CCOc2ccccc21	774 s
COc1cccc(Cc2nc(-c3cccc(-c4ccn[nH]4)c3)no2)c1	932 s
CCOc1ccc(NC(=O)C(C)C2CCN(C(=O)Nc3ccc(Cl)cc3)CC2)cc1 (stereo not given)	942 s
CCn1c(=O)c(C)nc2cc(-c3noc(C(C)NC(=O)c4ccco4)n3)ccc21 (stereo not given)	866 s
O=C(CN1C(=O)C2CCCCC2C1=O)N1CCN(Cc2ccc3c(c2)OCO3)CC1 (stereo not given)	603 s
CN1C(=O)c2cccn2CC1C(=O)NCC1CCCCC1 (stereo not given)	727 s
COc1cccc(-c2noc(Cn3cnc4c(oc5ccccc54)c3=O)n2)c1	938 s
CC1CCN(S(=O)(=O)c2ccc3c(c2)CCCC(=O)N3CC(=O)N2CCN(C)CC2)CC1	656 s
NC1CCN(O)C1=O (stereo not given)	621 s
CCCCc1nnc2sc(COc3ccc(C)c(C)c3)nn12	1120 s
COc1ccc(-c2noc(C3CC(=O)N(c4cc(C)cc(C)c4)C3)n2)cc1 (stereo not given)	1040 s
CCCNC(=O)C1CC(=O)N(CCc2c[nH]c3ccc(F)cc23)C1 (stereo not given)	684 s
Nc1ccc2c(c1Cl)C(=O)c1ccc(N)c(Cl)c1C2=O	854 s
Cc1nnc(-c2c(S(=O)(=O)NC3CCN(Cc4ccccc4)CC3)c(C)n(C)c2C)o1	602 s
O=C(CSc1ccc(N2CCCC(C(=O)NC3CC3)C2)nn1)Nc1ccc2c(c1)OCCO2 (stereo not given)	619 s
Cc1ccc(S(=O)(=O)N2CCC(n3cnnc3C3CC3)CC2)cc1Cl	809 s
Cc1ccc(Cl)cc1NC(=O)C1CCN(S(=O)(=O)c2ccc3c(c2)NC(=O)C(C)O3)CC1 (stereo not given)	834 s
CC(C)CCC(=O)N1CCC(N2C[C@H](O)C[C@H]2C(N)=O)CC1	571 s
CCOC(=O)c1c(C)n(C)c2cc(Br)c(OC)cc12	1090 s
Cn1nc(C(=O)N2CCCC2)c2c1CCN(C(=O)CCC(=O)N1CCCCC1)C2	653 s

Second part, the molecule after the results:

RP-LC retention time	Compound
814 s	Cc1cc(C)cc(C(=O)NCc2[nH]nc3ccccc23)c1
666 s	COc1ccccc1N1CCN(CCCCNC(=O)c2ccc3ccccc3c2)CC1
725 s	CCNc1nc(C)cc(N2CCN(S(=O)(=O)c3cccc(Cl)c3)CC2)n1
755 s	O=C(NCCOc1ccccc1)Nc1cccs1
939 s	O=C(Nc1cccc(F)c1)C1CCN(S(=O)(=O)c2cc(C(=O)N3CCCCCC3)cs2)CC1
738 s	CC(=O)N1CCc2cc(N3CC(C(=O)Nc4cccc(Cl)c4)CC3=O)ccc21 (stereo not given)
1130 s	O=S(=O)(c1cccc(F)c1)N1CCc2nc(-c3ccc(Cl)cc3)ncc2C1
853 s	Cn1nc(CNC(=O)COc2ccc(Cl)cc2)c2ccccc21
669 s	CC(=O)N1CCN(Cc2nc(-c3ccc(N4CCSCC4)nc3)no2)CC1
663 s	CC(=O)Nc1ccc(-n2cnc(C(=O)NCc3ccccc3F)c2)nc1
1000 s	O=c1ccc(-c2cccc(Cl)c2)nn1Cc1nc(-c2cccs2)no1
850 s	O=C(NCc1ccc(F)cc1)N1CCN(Cc2nc3cc(-c4ccccc4)ccc3o2)CC1
746 s	O=C(CN1C(=O)NC2(CCCCC2)C1=O)NCc1ccccc1Cl
953 s	O=C(OCc1nc2ccccc2s1)c1ccc2c(c1)OCCO2
869 s	Cn1c(=O)c2cc(C(=O)NCc3cc(F)ccc3F)nn2c2ccccc21
614 s	CCc1ccc(C(=O)c2cnc3ccc(OC)cc3c2N2CCN(C)CC2)cc1
908 s	Cc1sc(-c2nc(C(C)C)cs2)cc1S(=O)(=O)N1CCN(c2ccccn2)CC1
649 s	COC(=O)c1sc2cccc(F)c2c1S(=O)(=O)N1CCC(C(N)=O)(N2CCCCC2)CC1
684 s	CC1CCN(C(=O)c2nc(-c3ccnc(N4CCCC4)c3)no2)CC1
824 s	Cc1noc(-c2cccc(OC3CN(C(=O)c4cccc5[nH]ccc45)C3)c2)n1
562 s	Clc1ccc(-c2nc(N3CCN(C4CCCCC4)CC3)c3ccccc3n2)cc1
891 s	Cn1nc(-c2nnc(-c3ccccc3Cl)o2)c2c1CCN(C(=O)COc1ccc(F)cc1)C2
668 s	COc1ccc(-n2c(CN3CCN(C(=O)NC4CCCCC4)CC3)nc3cccnc32)cc1
605 s	CCOC(=O)c1nc(NCC2CCN(Cc3cccc(F)c3)CC2)c2ccccc2n1
656 s	CCN1CCC(N(Cc2ccc3c(c2)OCO3)C(=O)Nc2ccc(F)cc2)CC1
549 s	CCN(CC)c1ncnc2c1cnn2CC(=O)N1CCN(c2ccccn2)CC1
743 s	O=C(Nc1nsc(-c2ccccc2)n1)c1cccs1
771 s	O=C(c1ccccc1F)N1CCN(c2cc(-c3cccs3)[nH]n2)CC1
893 s	CCOc1ccc(N2C=C(C(=O)N3CCOCC3)S(=O)(=O)c3ccc(Cl)cc32)cc1
658 s	CCNC(=O)CN1CCN(Cc2ccccc2F)C1=O
